According to patent US5688946A, “Amino acid derivatives having renin inhibiting activity” (Hoffmann La Roche Inc., priority 1989, dated 1997):
Where a name gives a salt, the structure may show the parent alone.

Target: T1, human renin (Homo sapiens, UniProt P00797)
T1 sequence (P00797 67-406): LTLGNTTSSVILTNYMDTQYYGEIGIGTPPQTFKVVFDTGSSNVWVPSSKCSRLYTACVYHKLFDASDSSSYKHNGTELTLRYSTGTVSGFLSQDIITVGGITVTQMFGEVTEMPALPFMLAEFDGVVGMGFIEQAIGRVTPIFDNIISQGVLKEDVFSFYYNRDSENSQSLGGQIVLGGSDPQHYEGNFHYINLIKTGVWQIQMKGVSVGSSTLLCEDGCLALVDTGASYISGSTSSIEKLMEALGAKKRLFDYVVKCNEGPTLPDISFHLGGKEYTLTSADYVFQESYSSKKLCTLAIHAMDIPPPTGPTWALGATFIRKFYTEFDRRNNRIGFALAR
Test: In vitro test with pure human renin
Format: biochemical
Conditions: human tetradecapeptide renin substrate (hTD), pH 7.4, three hours at 37° C., angiotensin I via RIA
Method: In vitro test with pure human renin
The test is carried out in Eppendorf test tubes. The incubation mixture consists of (1) 100 μl of human renin in buffer A (0.1M sodium phosphate solution, pH 7.4, containing 0.1% bovine serum albumin, 0.1% sodium azide and 1 mM ethylenediaminetetraacetic acid), sufficient for a renin activity of 2-3 ng of angiotensin I/ml/hr.; (2) 145 μl of buffer A; (3) 30 μl of 10 μM human tetradecapeptide renin substrate (hTD) in 10 mM hydrochloric acid; (4) 15 μl of dimethyl sulphoxide with or without inhibitor and (5) 10 μl of a 0.03 molar solution of hydroxyquinoline sulphate in water.
The samples are incubated for three hours at 37° C. or 4° C. in triplicate. 2×100 μl samples per experimental test tube are used in order to measure the production of angiotensin I via RIA (standard radioimmunoassay; clinical assay solid phase kit). Cross reactivities of the antibody used in the RIA are: angiotensin I 100%; angiotensin II 0.0013%; hTD (angiotensin I-Val-Ile-His-Ser-OH) 0.09%. The production of angiotensin I is determined by the difference between the experiment at 37° C. and that at 4° C.
The following controls are carried out:
(a) Incubation of hTD samples without renin and without inhibitor at 37° C. and 4° C. The difference between these two values gives the base value of the angiotensin I production.
(b) Incubation of hTD samples with renin, but without inhibitor at 37° C. and 4° C. The difference between these values gives the maximal value of angiotensin I production.
In each sample the base value of the angiotensin I production is subtracted from the angiotensin I production which is determined. The difference between the maximal value and the base value gives the value of the maximal substrate hydrolysis (=100%) by renin.
The results are given as IC50 values which denote that concentration of the inhibitor at which the enzymatic activity is inhibited by 50%. The IC50 values are determined from a linear regression curve from a logit-log plot.

Row | Compound | IC50
1 | CC(C)(CN)S(=O)(=O)C[C@@H](Cc1ccccc1)C(=O)N[C@@H](Cc1c[nH]cn1)C(=O)N[C@@H](CC1CCCCC1)[C@@H](O)[C@@H](O)C1CC1 [A, (S)-α-[(S)-α-[[[(2-Amino-1,1-dimethylethyl)sulphonyl]methyl]hydrocinnamamido]-N-[(1S,2R,3S)-1-(cyclohexylmethyl)-3-cyclopropyl-2,3-dihydroxypropyl]imidazole-4-propionamidedihydrochloride] | 1.8 nM
2 | CC(C)(N)CS(=O)(=O)C[C@@H](Cc1ccccc1)C(=O)N[C@@H](Cc1c[nH]cn1)C(=O)N[C@@H](CC1CCCCC1)[C@@H](O)[C@@H](O)C1CC1 [B, (S)-α-[(S)-α-[[(2-Amino-2-methylpropyl)sulphonyl]methyl]hydrocinnamamido]-N-[(1S,2R,3S)-1-(cyclohexylmethyl)-3-cyclopropyl-2,3-dihydroxypropyl]imidazole-4-propionamide diacetate] | 17 nM
3 | O=C(N[C@@H](CC1CCCCC1)[C@@H](O)[C@@H](O)C1CC1)[C@H](Cc1c[nH]cn1)NC(=O)[C@H](Cc1ccccc1)OC(=O)N1CCCCC1 [D, (S)-α-[[(S)-1-[[(1S,2R,3S)-1-(Cyclohexylmethyl)-3-cyclopropyl-2,3-dihydroxypropyl]carbamoyl]-2-imidazol-4-ylethyl]carbamoyl]phenethyl 1-piperidinecarboxylate] | 1.2 nM

Second part, the compound after the results:

Row | IC50 | Compound
4 | 2.3 nM | CC(C)(C)S(=O)(=O)C[C@@H](Cc1ccccc1)C(=O)N[C@@H](Cc1c[nH]cn1)C(=O)N[C@@H](CC1CCCCC1)[C@@H](O)[C@@H](F)C1CC1 [E, (S)-α-[(S)-α-[(tert-Butylsulphonyl)methyl]hydrocinnamamido]-N-[(1S,2R,3S)-1-(cyclohexylmethyl)-3-cyclopropyl-3-fluoro-2-hydroxypropyl]imidazole-4-propionamide]
5 | 21 nM | O=C(N[C@@H](Cc1c[nH]cn1)C(=O)N[C@@H](CC1CCCCC1)[C@@H](O)[C@@H](O)C1CC1)c1cc2ccccc2[nH]1 [F, N-[(S)-1-[[(1S,2R,3S)-1-(Cyclohexylmethyl)-3-cyclopropyl-2,3-dihydroxypropyl]carbamoyl]-2-imidazol-4-ylethyl]indole-2-carboxamide]
